These are literature values, as cited in US12364661B2, “Deformable nano-scale vehicles (DNVS) for trans-blood brain barrier, trans-mucosal, and transdermal drug delivery” (The Regents of the University of California, priority 2015, dated 2025).

The structures appear in SMILES notation.

The conditions of the data set: measured experimentally.

In the case of `CCCN[C@H]1CCc2nc(N)sc2C1` [Pramipexole, pramipexole], the log P (in general, the decadic logarithm of the partition coefficient of the neutral form, usually between octanol and water) is on record as 0.4.
